Target: T1, BTK (Homo sapiens, UniProt Q06187)
T1 construct: The GM01501.3 cell line endogenously expresses BTK with a HiBiT fusion tag via CRISPR knock-in at its C-terminal region; endogenous in cells; host or cells: GM01501.3 (GM01501 cells engineered by CRISPR knock-in of HiBiT at the BTK locus)
Experiment: BTK degradation assay using the HiBiT Method (Nano-Glo HiBiT Lytic Assay, GM01501.3 cells)
Type: cell-based
Settings: HiBiT Degradation on GM01501.3 BTK @ 6 hours
In short: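 Degradation read-out: HiBiT luminescence after lytic reagent addition, giving DC50. Compounds dosed from 10 μM in 11 half-log steps (duplicate) onto GM01501.3 cells, whose endogenous BTK carries a C-terminal HiBiT knock-in tag; 6 h exposure, 37 °C, 5% CO2.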

T1 sequence (Q06187 whole entry, the tested form may be a part): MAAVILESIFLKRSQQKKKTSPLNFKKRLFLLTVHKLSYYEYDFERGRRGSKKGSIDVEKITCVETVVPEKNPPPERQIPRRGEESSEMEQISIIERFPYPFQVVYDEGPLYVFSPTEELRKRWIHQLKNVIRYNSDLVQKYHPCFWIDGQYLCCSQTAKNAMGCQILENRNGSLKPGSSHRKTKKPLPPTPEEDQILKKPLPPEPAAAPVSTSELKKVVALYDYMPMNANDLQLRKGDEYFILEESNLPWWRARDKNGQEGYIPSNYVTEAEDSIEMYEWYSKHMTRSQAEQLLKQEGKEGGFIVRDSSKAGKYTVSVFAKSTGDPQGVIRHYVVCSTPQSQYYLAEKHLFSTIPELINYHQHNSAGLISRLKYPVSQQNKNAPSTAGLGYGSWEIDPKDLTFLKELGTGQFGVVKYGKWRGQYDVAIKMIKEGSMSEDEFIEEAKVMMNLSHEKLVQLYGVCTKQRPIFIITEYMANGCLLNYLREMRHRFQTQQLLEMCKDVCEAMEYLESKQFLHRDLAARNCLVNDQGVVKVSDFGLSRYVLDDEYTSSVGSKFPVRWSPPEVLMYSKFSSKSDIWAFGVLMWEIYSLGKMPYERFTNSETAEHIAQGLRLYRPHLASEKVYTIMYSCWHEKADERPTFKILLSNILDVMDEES

Compound | DC50
Cc1cc(-c2ncnn3cc(-c4ccc(CN5CCC(c6ccc(NC7CCC(=O)NC7=O)cc6)CC5)cc4)cc23)ccc1CNC(=O)c1ncc(C(C)C)cn1 (stereo not drawn) [Example 94, N-[[4-[6-[4-[[4-[4-[(2,6-dioxo-3-piperidyl)amino]phenyl]-1-piperidyl]methyl]phenyl]pyrrolo[2,1-f][1,2,4]triazin-4-yl]-2-methyl-phenyl]methyl]-5-isopropyl-pyrimidine-2-carboxamide] | < 100 nM
Cc1cc(-c2ncnn3cc(N4CCN(C(=O)C5CC6(CCCN6C(=O)c6ccc(OC7CCC(=O)NC7=O)cc6)C5)CC4)cc23)ccc1CNC(=O)c1noc(C(C)(C)C)n1 (stereo not drawn) [Example 186, 5-(tert-butyl)-N-(4-(6-(4-(5-(4-((2,6-dioxopiperidin-3-yl)oxy)benzoyl)-5-azaspiro[3.4]octane-2-carbonyl)piperazin-1-yl)pyrrolo[2,1-f][1,2,4]triazin-4-yl)-2-methylbenzyl)-1,2,4-oxadiazole-3-carboxamide] | < 100 nM
Cc1cc(-c2ncnn3cc(-c4ccc5c(c4)CCN(CCCc4ccc(NC6CCC(=O)NC6=O)cc4)C5)cc23)ccc1CNC(=O)c1noc(C(C)(C)C)n1 (stereo not drawn) [Example 58, 5-tert-butyl-N-[[4-[6-[2-[3-[4-[(2,6-dioxo-3-piperidyl)amino]phenyl]propyl]-3,4-dihydro-1H-isoquinolin-6-yl]pyrrolo[2,1-f][1,2,4]triazin-4-yl]-2-methyl-phenyl]methyl]-1,2,4-oxadiazole-3-carboxamide] | < 100 nM
Cc1cc(-c2ncnn3cc(N4CCN(C(=O)C5CCN(C(=O)c6ccc(OC7CCC(=O)NC7=O)cc6)C56CCC6)CC4)cc23)ccc1CNC(=O)c1noc(C(C)(C)C)n1 (stereo not drawn) [Example 191, 5-(tert-butyl)-N-(4-(6-(4-(5-(4-((2,6-dioxopiperidin-3-yl)oxy)benzoyl)-5-azaspiro[3.4]octane-8-carbonyl)piperazin-1-yl)pyrrolo[2,1-f][1,2,4]triazin-4-yl)-2-methylbenzyl)-1,2,4-oxadiazole-3-carboxamide] | < 100 nM
CC(C)(C)OC1CN(C(=O)NCc2ccc(-c3ncnn4cc(-c5ccc(CN6CCC(c7ccc(NC8CCC(=O)NC8=O)cc7)CC6)cc5)cc34)cc2F)C1 (stereo not drawn) [Example 99, 3-tert-butoxy-N-[[4-[6-[4-[[4-[4-[(2,6-dioxo-3-piperidyl)amino]phenyl]-1-piperidyl]methyl]phenyl]pyrrolo[2,1-f][1,2,4]triazin-4-yl]-2-fluoro-phenyl]methyl]azetidine-1-carboxamide] | < 100 nM
Cc1cc(-c2ncnn3cc(CCC[C@H](F)CN4CCC(c5ccc(C6CCC(=O)NC6=O)cc5)CC4)cc23)ccc1CNC(=O)c1noc(C(C)(C)C)n1 (stereo partly drawn) [Example 171, 5-tert-butyl-N-[[4-[6-[(4S)-5-[4-[4-(2,6-dioxo-3-piperidyl)phenyl]-1-piperidyl]-4-fluoro-pentyl]pyrrolo[2,1-f][1,2,4]triazin-4-yl]-2-methyl-phenyl]methyl]-1,2,4-oxadiazole-3-carboxamide] | < 100 nM
Cc1cc(-c2ncnn3cc(N4CCN(C(=O)CCCCNC(=O)c5ccc(OC6CCC(=O)NC6=O)cc5)CC4)cc23)ccc1CNC(=O)c1noc(C(C)(C)C)n1 (stereo not drawn) [Example 173, 5-(tert-butyl)-N-(4-(6-(4-(5-(4-((2,6-dioxopiperidin-3-yl)oxy)benzamido)pentanoyl)piperazin-1-yl)pyrrolo[2,1-f][1,2,4]triazin-4-yl)-2-methylbenzyl)-1,2,4-oxadiazole-3-carboxamide] | 100 to 500 nM
Cc1cc(-c2ncnn3cc(-c4ccc(CN5CCC(c6ccc(NC7CCC(=O)NC7=O)cc6)CC5)cc4)cc23)ccc1CNC(=O)c1nc(C(C)(C)C)no1 (stereo not drawn) [Example 79, 3-tert-butyl-N-[[4-[6-[4-[[4-[4-[(2,6-dioxo-3-piperidyl)amino]phenyl]-1-piperidyl]methyl]phenyl]pyrrolo[2,1-f][1,2,4]triazin-4-yl]-2-methyl-phenyl]methyl]-1,2,4-oxadiazole-5-carboxamide] | < 100 nM

More lines, now with the values ahead:

DC50 | Compound
100 to 500 nM | CC(C)(C)c1nc(C(=O)NCc2ccc(-c3ncnn4cc(-c5ccc(CN6CCC(Cc7cccc(OC8CCC(=O)NC8=O)c7)CC6)cn5)cc34)cc2F)no1 (stereo not drawn) [Example 231, 5-(tert-butyl)-N-(4-(6-(5-((4-(3-((2,6-dioxopiperidin-3-yl)oxy)benzyl)piperidin-1-yl)methyl)pyridin-2-yl)pyrrolo[2,1-f][1,2,4]triazin-4-yl)-2-fluorobenzyl)-1,2,4-oxadiazole-3-carboxamide]
< 100 nM | Cc1cc(-c2ncnn3cc(-c4cccc(CN5CCC(c6ccc(C7CCC(=O)NC7=O)cc6)CC5)n4)cc23)ccc1CNC(=O)c1noc(C(C)(C)C)n1 (stereo not drawn) [Example 214, 5-(tert-butyl)-N-(4-(6-(6-((4-(4-(2,6-dioxopiperidin-3-yl)phenyl)piperidin-1-yl)methyl)pyridin-2-yl)pyrrolo [2,1-f][1,2,4]triazin-4-yl)-2-methylbenzyl)-1,2,4-oxadiazole-3-carboxamide]
< 100 nM | Cc1cc(-c2ncnn3cc(-c4ccc(CN5CCC(c6ccc(C7CCC(=O)NC7=O)cc6)CC5)cc4)cc23)ccc1CNC(=O)c1noc(C(C)(C)C)n1 (stereo not drawn) [Example 4, 5-tert-butyl-N-[[4-[6-[4-[[4-[4-(2,6-dioxo-3-piperidyl)phenyl]-1-piperidyl]methyl]phenyl]pyrrolo[2,1-f][1,2,4]triazin-4-yl]-2-methyl-phenyl]methyl]-1,2,4-oxadiazole-3-carboxamide]
< 100 nM | Cc1cc(-c2ncnn3cc(-c4ccc(CN5CCC(c6ccc(NC7CCC(=O)NC7=O)cc6)CC5)cc4)cc23)ccc1CNC(=O)c1noc(C(C)(C)C)n1 (single isomer, unassigned; isomer 1) [Example 2, 5-tert-butyl-N-[[4-[6-[4-[[4-[4-[(2,6-dioxo-3-piperidyl)amino]phenyl]-1-piperidyl]methyl]phenyl]pyrrolo[2,1-f][1,2,4]triazin-4-yl]-2-methyl-phenyl]methyl]-1,2,4-oxadiazole-3-carboxamide isomer 1]
< 100 nM | CC(C)(C)c1nc(C(=O)NCc2ccc(-c3ncnn4cc(-c5ccc(CN6CCc7ccc(OC8CCC(=O)NC8=O)cc7C6)cn5)cc34)cc2F)no1 (stereo not drawn) [Example 226]
< 100 nM | Cc1cc(-c2ncnn3cc(-c4ccc(CN5CCC(c6ccc(NC7CCC(=O)NC7=O)nn6)CC5)cc4)cc23)ccc1CNC(=O)c1noc(C(C)(C)C)n1 (stereo not drawn) [Example 31, 5-tert-butyl-N-[[4-[6-[4-[[4-[6-[(2,6-dioxo-3-piperidyl)amino]pyridazin-3-yl]-1-piperidyl]methyl]phenyl]pyrrolo[2,1-f][1,2,4]triazin-4-yl]-2-methyl-phenyl]methyl]-1,2,4-oxadiazole-3-carboxamide]
< 100 nM | CC(C)(C)c1nc(C(=O)NCc2ccc(-c3ncnn4cc(-c5ccc(CN6CCN(Cc7ccc(OC8CCC(=O)NC8=O)cc7)CC6)cn5)cc34)cc2F)no1 (stereo not drawn) [Example 234, 5-(tert-butyl)-N-(4-(6-(5-((4-(4-((2,6-dioxopiperidin-3-yl)oxy)benzyl)piperazin-1-yl)methyl)pyridin-2-yl)pyrrolo[2,1-f][1,2,4]triazin-4-yl)-2-fluorobenzyl)-1,2,4-oxadiazole-3-carboxamide]

From patent US20240287076A1, “COMPOUNDS FOR TARGETING DEGRADATION OF BRUTON'S TYROSINE KINASE” (BIOGEN MA INC., priority 2021, published 2024)
